What all share (assay type): in vivo
Series [1] relates to Yellow Fever Mosquito (Aedes aegypti, AEDSAE) ("YFM"). The series is described as follows: Bioassays on YFM, 96-well plate larval assay. The settings on record: about 1 day-old larvae, from 4000 ppm DMSO master plate diluted, room temperature, scored after 3 days. How it is done:
Certain molecules disclosed in this document were tested against YFM using procedures described in the following paragraph. In the reporting of the results, the “YFM Rating Table” was used (See Table Section).
Master plates containing 400 μg of a molecule dissolved in 100 μL of dimethyl sulfoxide (DMSO) (equivalent to a 4000 ppm solution) are used. A master plate of assembled molecules contains 15 μL per well. To this plate, 135 μL of a 90:10 water:acetone mixture is added to each well. A robot (Biomek® NXP Laboratory Automation Workstation) is programmed to dispense 15 μL aspirations from the master plate into an empty 96-well shallow plate (“daughter” plate). There are 6 reps (“daughter” plates) created per master. The created daughter plates are then immediately infested with YFM larvae.
The day before plates are to be treated, mosquito eggs are placed in Millipore water containing liver powder to begin hatching (4 g. into 400 mL). After the daughter plates are created using the robot, they are infested with 220 μL of the liver powder/larval mosquito mixture (about 1 day-old larvae). After plates are infested with mosquito larvae, a non-evaporative lid is used to cover the plate to reduce drying. Plates are held at room temperature for 3 days prior to grading. After 3 days, each well is observed and scored based on mortality.

Series [2] concerns Cabbage Looper (Trichoplusia ni, TRIPNI) ("CL"). As to the kind of experiment: Bioassays on CL, 128-well diet tray assay. The settings on record: 168 h, second instar larvae, 50 μg/cm^2 on artificial diet, 25° C., five to seven days, average of eight wells, read-out: CL % Control (or Mortality) rating. How it is done:
(§1) Certain molecules disclosed in this document were tested against BAW, CEW, and CL using procedures described in the following examples. In the reporting of the results, the “BAW, CEW, & CL Rating Table” was used (See Table Section).
Bioassays on CL were conducted using a 128-well diet tray assay. one to five second instar CL larvae were placed in each well (3 mL) of the diet tray that had been previously filled with 1 mL of artificial diet to which 50 μg/cm^2 of the test compound (dissolved in 50 μL of 90:10 acetone-water mixture) had been applied (to each of eight wells) and then allowed to dry. Trays were covered with a clear self-adhesive cover and held at 25° C., 14:10 light-dark for five to seven days. Percent mortality was recorded for the larvae in each well; activity in the eight wells was then averaged. The results are indicated in the table entitled “Table ABC: Biological Results” (See Table Section).

The test system of series [3] is Beet Armyworm (Spodoptera exigua, LAPHEG) ("BAW"). As to the kind of experiment: Bioassays on BAW, 128-well diet tray assay. The following applies: 168 h, second instar larvae, 50 μg/cm^2 on artificial diet, 25° C., five to seven days, average of eight wells, read-out: BAW % Control (or Mortality) rating. Here is the method:
as §1
Bioassays on BAW were conducted using a 128-well diet tray assay. one to five second instar BAW larvae were placed in each well (3 mL) of the diet tray that had been previously filled with 1 mL of artificial diet to which 50 μg/cm^2 of the test compound (dissolved in 50 μL of 90:10 acetone-water mixture) had been applied (to each of eight wells) and then allowed to dry. Trays were covered with a clear self-adhesive cover and held at 25° C., 14:10 light-dark for five to seven days. Percent mortality was recorded for the larvae in each well; activity in the eight wells was then averaged. The results are indicated in the table entitled “Table ABC: Biological Results” (See Table Section).

Results on 20 molecules are retold here after patent US9445594B2, “Molecules having certain pesticidal utilities, intermediates, compositions, and processes, related thereto” (priority 2014, dated 2016).

Structures are written as SMILES.

In general, mortality refers to the share of the test organisms that died. For the molecule `O=C(Nc1ccc(-c2ncn(-c3ccc(OC(F)(F)C(F)(F)F)cc3)n2)cc1)Nc1ccccc1OC(F)(F)F` [F1, 1-(4-(1-(4-(Perfluoroethoxy)phenyl)-1H-1,2,4-triazol-3-yl)phenyl)-3-(2-(trifluoromethoxy)phenyl)urea], the “YFM % Control (or Mortality) rating” value in series [1] was “D (No activity noticed in this bioassay)”. Moreover, the mortality at 50 µg/cm2 is 50 to 100% in series [2] and 0% in series [3].

Turning to `O=C(Nc1ccc(-c2ncn(-c3ccc(OC(F)(F)F)cc3)n2)cc1)Nc1ccccc1-c1cc(F)c(F)c(F)c1` [F9, 1-(3′,4′,5′-Trifluoro-[1,1′-biphenyl]-2-yl)-3-(4-(1-(4-(trifluoromethoxy)phenyl)-1H-1,2,4-triazol-3-yl)phenyl)urea], in series [1], the “YFM % Control (or Mortality) rating” value was “D (No activity noticed in this bioassay)”. For the same molecule, the mortality at 50 µg/cm2 in series [2] and in series [3] was 50 to 100% each time.

As for `O=C(Nc1ccc(-c2ncn(-c3ccc(OC(F)(F)F)cc3)n2)cc1)Nc1ccccc1-n1cccc1` [F13, 1-(2-(1H-pyrrol-1-yl)phenyl)-3-(4-(1-(4-(trifluoromethoxy)phenyl)-1H-1,2,4-triazol-3-yl)phenyl)urea], the mortality at 50 µg/cm2 in series [2] and in series [3] was 50 to 100% throughout.

Regarding `O=C(Nc1ccc(-c2ncn(-c3ccc(OC(F)(F)C(F)(F)F)cc3)n2)cc1)Nc1ccccc1C1CC1` [F15, 1-(2-Cyclopropylphenyl)-3-(4-(1-(4-(perfluoroethoxy)phenyl)-1H-1,2,4-triazol-3-yl)phenyl)urea], the “YFM % Control (or Mortality) rating” value in series [1] is “B (More than 0 - Less than 80)”. For the same molecule, the mortality at 50 µg/cm2 in series [2] and in series [3] was 50 to 100% throughout.

Take `Cc1ccccc1N(C(=O)Nc1ccc(-c2ncn(-c3ccc(OC(F)(F)F)cc3)n2)cc1)C(N)=S` [F19, N-(2-methylphenyl)-N-(4-{1-[4-(trifluoromethoxy)phenyl]-1H-1,2,4-triazol-3-yl}phenyl)dicarbonimidothioic diamide]: the mortality at 50 µg/cm2 in series [2] and in series [3] was 50 to 100% throughout.

Take `Cc1ccccc1-c1cccnc1NC(=O)Nc1ccc(-c2ncn(-c3ccc(OC(F)(F)F)cc3)n2)cc1` [F24, 1-(3-(o-Tolyl)pyridin-2-yl)-3-(4-(1-(4-(trifluoromethoxy)phenyl)-1H-1,2,4-triazol-3-yl)phenyl)urea]: the mortality at 50 µg/cm2 in series [2] and in series [3] was 50 to 100% each time.

For `O=C(Nc1ccc(-c2ncn(-c3ccc(OC(F)(F)F)cc3)n2)cc1)Nc1ccccc1OC(F)(F)F` [F26, 1-(2-(Trifluoromethoxy)phenyl)-3-(4-(1-(4-(trifluoromethoxy)phenyl)-1H-1,2,4-triazol-3-yl)phenyl)urea], the “YFM % Control (or Mortality) rating” value in series [1] is “D (No activity noticed in this bioassay)”. The mortality at 50 µg/cm2 in series [2] and in series [3] was 50 to 100% throughout.

For the molecule `O=C(Nc1ccc(-c2ncn(-c3ccc(OC(F)(F)F)cc3)n2)cc1)Nc1ncccc1-c1ccccc1` [F32, 1-(3-Phenylpyridin-2-yl)-3-(4-(1-(4-(trifluoromethoxy)phenyl)-1H-1,2,4-triazol-3-yl)phenyl)urea], the “YFM % Control (or Mortality) rating” value in series [1] was “B (More than 0 - Less than 80)”.

Take `CC(C)c1ccccc1NC(=O)Nc1ccc(-c2ncn(-c3ccc(OC(F)(F)F)cc3)n2)cc1` [F33, 1-(2-Isopropylphenyl)-3-(4-(1-(4-(trifluoromethoxy)phenyl)-1H-1,2,4-triazol-3-yl)phenyl)urea]: the “YFM % Control (or Mortality) rating” value in series [1] is listed as “B (More than 0 - Less than 80)”. Besides, the mortality at 50 µg/cm2 in series [2] and in series [3] was 50 to 100% each time.

In the case of `CCc1ccccc1N(C(=O)Nc1ccc(-c2ncn(-c3ccc(OC(F)(F)F)cc3)n2)cc1)C(N)=S` [F52, N-(2-Ethylphenyl)-N-(4-{1-[4-(trifluoromethoxy)phenyl]-1H-1,2,4-triazol-3-yl}phenyl)dicarbonimidothioic diamide], the mortality at 50 µg/cm2 in series [2] and in series [3] was 50 to 100% each time.

In the case of `O=C(NCc1ccc(-c2ncn(-c3ccc(OC(F)(F)F)cc3)n2)cc1)Nc1ccccc1-c1ccccc1` [F70, 1-([1,1′-biphenyl]-2-yl)-3-(4-(1-(4-(trifluoromethoxy)phenyl)-1H-1,2,4-triazol-3-yl)benzyl)urea], the mortality at 50 µg/cm2 in series [2] and in series [3] was 50 to 100% throughout.

Regarding `O=C(NCCCc1ccc(-c2ncn(-c3ccc(OC(F)(F)F)cc3)n2)cc1)Nc1ccc(Cl)cc1` [F79, 1-(4-Chlorophenyl)-3-(3-(4-(1-(4-(trifluoromethoxy)phenyl)-1H-1,2,4-triazol-3-yl)phenyl)propyl)urea], in series [1], the “YFM % Control (or Mortality) rating” value is on record as “D (No activity noticed in this bioassay)”. Moreover, the mortality at 50 µg/cm2 in series [2] was in the range of 50 to 100%.

As to `COc1ccc(NC(=O)NCCCc2ccc(-c3ncn(-c4ccc(OC(F)(F)F)cc4)n3)cc2)cc1` [F82, 1-(4-Methoxyphenyl)-3-(3-(4-(1-(4-(trifluoromethoxy)phenyl)-1H-1,2,4-triazol-3-yl)phenyl)propyl)urea], in series [1], the “YFM % Control (or Mortality) rating” value is “D (No activity noticed in this bioassay)”. Also, the mortality at 50 µg/cm2 in series [2] worked out at 0%.

Turning to `Cc1ccc(NC(=O)NCCCc2ccc(-c3ncn(-c4ccc(OC(F)(F)F)cc4)n3)cc2)cc1` [F83, 1-(p-Tolyl)-3-(3-(4-(1-(4-(trifluoromethoxy)phenyl)-1H-1,2,4-triazol-3-yl)phenyl)propyl)urea], in series [1], the “YFM % Control (or Mortality) rating” value was “D (No activity noticed in this bioassay)”. The mortality at 50 µg/cm2 in series [2] came out at 0%.

On to `Cc1cccc(NC(=O)NCCCc2ccc(-c3ncn(-c4ccc(OC(F)(F)F)cc4)n3)cc2)c1` [F87, 1-(m-Tolyl)-3-(3-(4-(1-(4-(trifluoromethoxy)phenyl)-1H-1,2,4-triazol-3-yl)phenyl)propyl)urea], for which, in series [1], the “YFM % Control (or Mortality) rating” value was “D (No activity noticed in this bioassay)”. The mortality at 50 µg/cm2 in series [2] was determined as 0%.

Turning to `Cc1ccccc1NC(=O)NCCCCc1ccc(-c2ncn(-c3ccc(OC(F)(F)F)cc3)n2)cc1` [F89, 1-(o-Tolyl)-3-(4-(4-(1-(4-(trifluoromethoxy)phenyl)-1H-1,2,4-triazol-3-yl)phenyl)butyl)urea], the “YFM % Control (or Mortality) rating” value in series [1] is on record as “D (No activity noticed in this bioassay)”. In addition, the mortality at 50 µg/cm2 in series [3] was determined as 0%.

On to `Cc1cccc(NC(=O)NCCCCc2ccc(-c3ncn(-c4ccc(OC(F)(F)F)cc4)n3)cc2)c1` [F91, 1-(m-Tolyl)-3-(4-(4-(1-(4-(trifluoromethoxy)phenyl)-1H-1,2,4-triazol-3-yl)phenyl)butyl)urea], for which the “YFM % Control (or Mortality) rating” value in series [1] is recorded as “D (No activity noticed in this bioassay)”. The mortality at 50 µg/cm2 in series [2] is 0%.

For `O=C(NCCCCc1ccc(-c2ncn(-c3ccc(OC(F)(F)F)cc3)n2)cc1)Nc1ccccc1Cl` [F92, 1-(2-Chlorophenyl)-3-(4-(4-(1-(4-(trifluoromethoxy)phenyl)-1H-1,2,4-triazol-3-yl)phenyl)butyl)urea], the “YFM % Control (or Mortality) rating” value in series [1] was “D (No activity noticed in this bioassay)”. In series [2], the mortality at 50 µg/cm2 came out at 0%.

Regarding `COc1cccc(NC(=O)NCCCCc2ccc(-c3ncn(-c4ccc(OC(F)(F)F)cc4)n3)cc2)c1` [F96, 1-(3-Methoxyphenyl)-3-(4-(4-(1-(4-(trifluoromethoxy)phenyl)-1H-1,2,4-triazol-3-yl)phenyl)butyl)urea], in series [1], the “YFM % Control (or Mortality) rating” value is “D (No activity noticed in this bioassay)”. Moreover, in series [3], the mortality at 50 µg/cm2 stood at 0%.

With `CCc1ccccc1NC(=O)NCc1ccc(-c2ncn(-c3ccc(OC(F)(F)F)cc3)n2)cc1` [F101, 1-(2-Ethylphenyl)-3-(4-(1-(4-(trifluoromethoxy)phenyl)-1H-1,2,4-triazol-3-yl)benzyl)urea], in series [1], the “YFM % Control (or Mortality) rating” value is “D (No activity noticed in this bioassay)”. Further, in series [3], the mortality at 50 µg/cm2 was 0%.
